Data from ChEMBL document CHEMBL4376832, “Changing the Rules of TB-Drug Discovery” (J Med Chem, 2019).
≈ marks a conversion by molar mass, not a printed value.

Assays:
[1] = tested on: Mycobacterium tuberculosis; assay: Antimycobacterial against GFP-transfected Mycobacterium tuberculosis H37Rv assessed as reduction in GFP protein expression and measured every 2 days for 12 days; assay type: functional
[2] = Inhibition of Mycobacterium phlei DSM-43239 C-terminal ATP-synthase assessed as reduction in luciferase activity incubated for 10 mins in presence of ATP by luminometric method; design: species or system Mycolicibacterium phlei DSM 43239 = CCUG 21000
[3] = Inhibition of ATP-synthase (unknown origin); design: species or system Homo sapiens

| SMILES | MIC [1] [µM] | IC50 [2] [nM] | IC50 [3] [µM] |
| --- | --- | --- | --- |
| COc1ccc(S(=O)(=O)N2CCCCCC2)cc1NC(=O)Cc1nnc(O)c2ccccc12 | 250 (≈ 118 µg/mL) | – | – |
| COc1nc2ccc(Br)cc2cc1[C@@H](c1ccccc1)[C@@](O)(CCN(C)C)c1cccc2ccccc12 [BEDAQUILINE] | – | 20 to 25 | > 200 |
